{"source": "patent US20100150890A1", "about": "“MEDICINAL COMPOSITION, FOOD OR DRINK HAVING EFFECT OF ENHANCING SYMPATHETIC NERVOUS ACTIVITY” (SUNTORY HOLDINGS LIMITED, priority 2005, published 2010)", "assay_type_in_all_cases": "in vivo", "key": {"[1]": {"experiment": "Rat blood pressure after transduodenal administration (left femoral artery cannula, transducer)", "settings": "urethane-anesthetized male rat, transduodenal 10 μg/2 ml per animal, vs physiological saline control; FIG. 4", "experimental": "(§1) In these experiments, use was made of male Mister rats weighing about 300 g which had been fed in a thermostatic chamber (24° C.) with a light-dark cycle of 12-hour intervals (under illumination from 8:00 to 20:00) for 1 week or longer. A single rat was employed for each nervous experiment. The animals were fed with a feed (Oriental Yeast, MF) and water ad libitum. The autonomic nervous activity were examined by fasting the rats for 3 hours on the day of the experiment and then subjecting to an abdominal surgery under urethane-anesthesia at the intermediate point of the light period. Then, the effects of the transduodenal administration of 2,3-dihydro-3,5-dihydroxy-6-methyl-4H-pyran-4-one obtained in Example 1 on the kidney sympathetic nervous activity, stomach vagal (parasympathetic) nervous activity and blood pressure were measured in accordance with the method reported by T. Yamano et al., Neurosci. […] A cannula was inserted into the left femoral artery and then the blood pressure was measured by use of a transducer. […] Electrical nervous activity thus obtained were amplified with a condenser type differential amplifier, monitored with an oscilloscope and recorded on a magnetic tape. […] The data was analyzed based on the average discharge frequency per 5 seconds (pulse/5 sec) and expressed as a percentage by referring to the level before the administration as to 100%. […]"}, "[2]": {"tested_on": "epididymal white adipose tissue sympathetic nervous activity", "experiment": "Rat epididymal white adipose tissue sympathetic nervous activity after transduodenal administration", "settings": "transduodenal administration 10 μg, single rat, FIG. 7"}, "[3]": {"tested_on": "stomach vagal (parasympathetic) nervous activity", "experiment": "Rat stomach vagal (parasympathetic) nervous activity after transduodenal administration", "settings": "urethane-anesthetized male rat, transduodenal 10 μg/2 ml per animal, vs physiological saline control; FIG. 5", "experimental": "as §1"}, "[4]": {"experiment": "Rat oxygen consumption (energy metabolism) after forced oral administration", "settings": "male SD rats fasted 16 hours, 40 μg/8 ml/kg body weight forced oral, within 60 minutes after administration, 5 rats per group; FIG. 8", "experimental": "Male SD rats aged 7 weeks were preliminarily fed with a solid feed (CE-2: NIPPON CREA) and water ad libitum for 1 week for the habituation to the light-dark cycle of 12-hour intervals. The thus habituated animals were fasted for 16 hours before the administration of the samples and then divided into two groups. Then, 40 μg/8 ml/kg body weight of DDMP and 8 ml/kg body weight of distilled water for injection were forcibly orally administered into the stomach to the respective groups. Within 60 minutes following the administration, oxygen consumption was measured with a metabolic meter for small animals (MK-5000RQ2: manufactured by MUROMACHI KIKAI Co., Ltd.). A combination of a DDMP-administered rat with a water-administered rat was referred to as a single experimental lot and the averages of five combinations (i.e., a DDMP-administered group having 5 rats and a water-administered group having 5 rats) were calculated."}, "[5]": {"tested_on": "interscapular brown adipose tissue sympathetic nervous activity", "experiment": "Rat interscapular brown adipose tissue sympathetic nervous activity after transduodenal administration", "settings": "transduodenal administration 10 μg, single rat, FIG. 6"}, "[6]": {"tested_on": "kidney sympathetic nervous activity", "experiment": "Rat kidney sympathetic nervous activity after transduodenal administration", "settings": "urethane-anesthetized male rat, transduodenal 10 μg/2 ml per animal, vs physiological saline control; FIG. 3", "experimental": "as §1"}}, "data": [{"smiles": "CC1=C(O)C(=O)C(O)CO1", "note": "(stereo not drawn) [DDMP, 2,3-Dihydro-3,5-dihydroxy-6-methyl-4H-pyran-4-one]", "values": [{"measurement": "blood pressure", "setting": "[1]", "result": "not elevated"}, {"measurement": "epididymal white adipose tissue sympathetic nervous activity", "setting": "[2]", "result": "enhanced"}, {"measurement": "stomach vagal (parasympathetic) nervous activity", "setting": "[3]", "result": "reduced"}, {"measurement": "oxygen consumption compared with the water-administered group", "setting": "[4]", "result": "increase in oxygen consumption"}, {"measurement": "interscapular brown adipose tissue sympathetic nervous activity", "setting": "[5]", "result": "enhanced"}, {"measurement": "kidney sympathetic nervous activity (discharge frequency vs level before administration)", "setting": "[6]", "result": "enhanced"}]}]}
